# Measurements from ChEMBL document CHEMBL1201862, “PubChem BioAssay data set” (2004).
#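 Tested at 5 concentrations; 48 h exposure; 96-well plates; endpoints linearly interpolated, else capped at highest concentration. Here, GI50 denotes the concentration required for 50% inhibition of growth.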 Calls of active or inactive are those of the source. Cut-off read from the data, not from the text of the source: active = GI50 up to about 1.1 µM and inactive = higher.
# Columns and labels:
# Experiment in all cases: growth of human tumour cells (NCI), 48 h
# 786-0 = test system: 786-0
# HOP-62 = test system: HOP-62
# ACHN = test system: ACHN
# HCC 2998 = test system: HCC 2998
# HCT-15 = test system: HCT-15
# PC-3 = test system: PC-3
# MDA-N = test system: MDA-N
# HCT-116 = test system: HCT-116
# SK-OV-3 = test system: SK-OV-3
# Hs-578T = test system: Hs-578T
# SW-620 = test system: SW-620
# SK-MEL-28 = test system: SK-MEL-28
# OVCAR-4 = test system: OVCAR-4
# COLO 205 = test system: COLO 205
# MOLT-4 = test system: MOLT-4
# SF-268 = test system: SF-268
# NCI/ADR-RES = test system: NCI/ADR-RES
# CAKI-1 = test system: CAKI-1
# K562 = test system: K562
# NCI-H460 = test system: NCI-H460
# OVCAR-8 = test system: OVCAR-8
# SN12C = test system: SN12C
# OVCAR-3 = test system: OVCAR-3
# NCI-H23 = test system: NCI-H23
# SK-MEL-2 = test system: SK-MEL-2
# NCI-H226 = test system: NCI-H226
# RPMI-8226 = test system: RPMI-8226
# A549 = test system: A549
# A498 = test system: A498
# MDA-MB-435 = test system: MDA-MB-435
# UACC-62 = test system: UACC-62
# CCRF-CEM = test system: CCRF-CEM
# UO-31 = test system: UO-31
# KM12 = test system: KM12
# MCF7 = test system: MCF7
# T47D = test system: T47D
# M14 = test system: M14
# EKVX = test system: EKVX
# SF-539 = test system: SF-539
# SNB-75 = test system: SNB-75
# HT-29 = test system: HT-29
# SF-295 = test system: SF-295
# Malme-3M = test system: Malme-3M
# SNB-19 = test system: SNB-19
# U-251 = test system: U-251
# MDA-MB-231 = test system: MDA-MB-231
# OVCAR-5 = test system: OVCAR-5
# BT-549 = test system: BT-549
# UACC-257 = test system: UACC-257
# HOP-92 = test system: HOP-92
# SK-MEL-5 = test system: SK-MEL-5
# RXF 393 = test system: RXF 393
# LOX IMVI = test system: LOX IMVI
# SR = test system: SR
# TK-10 = test system: TK-10
# NCI-H522 = test system: NCI-H522
# IGROV-1 = test system: IGROV-1
# DU-145 = test system: DU-145
# HL-60 = test system: HL-60
compound,measurement,setting,value
O=[N+]([O-])C(=C1Nc2ccccc2N1)/C(Cl)=C(/Cl)N1CCOCC1,GI50,786-0,98.9 µM (inactive)
same,GI50,HOP-62,97.9 µM (inactive)
same,GI50,ACHN,71.8 µM (inactive)
same,GI50,HCC 2998,> 100 µM (inactive)
same,GI50,HCT-15,31.8 µM
same,GI50,PC-3,87.7 µM (inactive)
same,GI50,MDA-N,> 100 µM (inactive)
same,GI50,HCT-116,89.5 µM (inactive)
same,GI50,SK-OV-3,> 100 µM (inactive)
same,GI50,Hs-578T,34.6 µM (inactive)
same,GI50,SW-620,30.5 µM (inactive)
same,GI50,SK-MEL-28,> 100 µM (inactive)
same,GI50,OVCAR-4,25.4 µM (inactive)
same,GI50,COLO 205,80.9 µM (inactive)
same,GI50,MOLT-4,17.4 µM (inactive)
same,GI50,SF-268,22.6 µM (inactive)
same,GI50,NCI/ADR-RES,57.8 µM (inactive)
same,GI50,CAKI-1,> 100 µM (inactive)
same,GI50,K562,43.3 µM (inactive)
same,GI50,NCI-H460,> 100 µM (inactive)
same,GI50,OVCAR-8,28.8 µM (inactive)
same,GI50,SN12C,> 100 µM (inactive)
same,GI50,OVCAR-3,26.7 µM (inactive)
same,GI50,NCI-H23,29.3 µM (inactive)
same,GI50,SK-MEL-2,> 100 µM (inactive)
same,GI50,NCI-H226,> 100 µM (inactive)
same,GI50,RPMI-8226,57.7 µM (inactive)
same,GI50,A549,> 100 µM (inactive)
same,GI50,A498,> 100 µM (inactive)
same,GI50,MDA-MB-435,> 100 µM (inactive)
same,GI50,UACC-62,77.6 µM (inactive)
same,GI50,CCRF-CEM,50.8 µM (inactive)
same,GI50,UO-31,> 100 µM (inactive)
same,GI50,KM12,> 100 µM (inactive)
same,GI50,MCF7,45.8 µM (inactive)
same,GI50,T47D,15.1 µM (inactive)
same,GI50,M14,88.5 µM (inactive)
same,GI50,EKVX,> 100 µM (inactive)
same,GI50,SF-539,> 100 µM (inactive)
same,GI50,SNB-75,97.7 µM (inactive)
same,GI50,HT-29,> 100 µM (inactive)
same,GI50,SF-295,98.4 µM (inactive)
same,GI50,Malme-3M,27.2 µM (inactive)
same,GI50,SNB-19,> 100 µM (inactive)
same,GI50,U-251,61.9 µM (inactive)
same,GI50,MDA-MB-231,36.1 µM (inactive)
same,GI50,OVCAR-5,> 100 µM (inactive)
same,GI50,BT-549,27.5 µM (inactive)
same,GI50,UACC-257,> 100 µM (inactive)
O=[N+]([O-])c1ccc(/N=N/c2c(O)ccc3cc(S(=O)(=O)O)cc(S(=O)(=O)O)c23)cc1,GI50,786-0,> 100 µM (inactive)
same,GI50,HOP-62,> 100 µM (inactive)
same,GI50,ACHN,> 100 µM (inactive)
same,GI50,HCT-15,> 100 µM
same,GI50,HOP-92,> 100 µM (inactive)
same,GI50,PC-3,> 100 µM (inactive)
same,GI50,MDA-N,> 100 µM (inactive)
same,GI50,HCT-116,> 100 µM (inactive)
same,GI50,SK-OV-3,> 100 µM (inactive)
same,GI50,Hs-578T,> 100 µM (inactive)
same,GI50,SW-620,> 100 µM (inactive)
same,GI50,SK-MEL-28,> 100 µM (inactive)
same,GI50,OVCAR-4,> 100 µM (inactive)
same,GI50,COLO 205,> 100 µM (inactive)
same,GI50,SK-MEL-5,> 100 µM (inactive)
same,GI50,MOLT-4,> 100 µM (inactive)
same,GI50,SF-268,> 100 µM (inactive)
same,GI50,NCI/ADR-RES,> 100 µM (inactive)
same,GI50,CAKI-1,> 100 µM (inactive)
same,GI50,K562,> 100 µM (inactive)
same,GI50,OVCAR-8,> 100 µM (inactive)
same,GI50,RXF 393,> 100 µM (inactive)
same,GI50,SN12C,> 100 µM (inactive)
same,GI50,LOX IMVI,> 100 µM (inactive)
same,GI50,SR,> 100 µM (inactive)
same,GI50,OVCAR-3,> 100 µM (inactive)
same,GI50,NCI-H23,> 100 µM (inactive)
same,GI50,SK-MEL-2,> 100 µM (inactive)
same,GI50,NCI-H226,> 100 µM (inactive)
same,GI50,RPMI-8226,> 100 µM (inactive)
same,GI50,A549,> 100 µM (inactive)
same,GI50,A498,> 100 µM (inactive)
same,GI50,MDA-MB-435,> 100 µM (inactive)
same,GI50,UACC-62,> 100 µM (inactive)
same,GI50,CCRF-CEM,> 100 µM (inactive)
same,GI50,TK-10,> 100 µM (inactive)
same,GI50,UO-31,> 100 µM (inactive)
same,GI50,KM12,> 100 µM (inactive)
same,GI50,T47D,> 100 µM (inactive)
same,GI50,M14,> 100 µM (inactive)
same,GI50,NCI-H522,> 100 µM (inactive)
same,GI50,EKVX,> 100 µM (inactive)
same,GI50,SNB-75,> 100 µM (inactive)
same,GI50,HT-29,> 100 µM (inactive)
same,GI50,SF-295,> 100 µM (inactive)
same,GI50,Malme-3M,> 100 µM (inactive)
same,GI50,IGROV-1,> 100 µM (inactive)
same,GI50,DU-145,> 100 µM (inactive)
same,GI50,SNB-19,> 100 µM (inactive)
same,GI50,U-251,> 100 µM (inactive)
same,GI50,MDA-MB-231,> 100 µM (inactive)
same,GI50,OVCAR-5,> 100 µM (inactive)
same,GI50,BT-549,> 100 µM (inactive)
same,GI50,UACC-257,> 100 µM (inactive)
COc1cc(OC)c2c(c1-c1ccc(C)cc1)CC(C)N(Cc1ccccc1)[C@H]2C (some centres undefined),GI50,786-0,33.7 µM (inactive)
same,GI50,HOP-62,59 µM (inactive)
same,GI50,ACHN,18.3 µM (inactive)
same,GI50,HCC 2998,31.1 µM (inactive)
same,GI50,HCT-15,35.9 µM
same,GI50,PC-3,36.1 µM (inactive)
same,GI50,MDA-N,33.7 µM (inactive)
same,GI50,HCT-116,20.3 µM (inactive)
same,GI50,SK-OV-3,31.8 µM (inactive)
same,GI50,Hs-578T,12.7 µM (inactive)
same,GI50,SW-620,34.8 µM (inactive)
same,GI50,SK-MEL-28,38.2 µM (inactive)
same,GI50,COLO 205,32.3 µM (inactive)
same,GI50,SK-MEL-5,19.4 µM (inactive)
same,GI50,MOLT-4,23.6 µM (inactive)
same,GI50,SF-268,31.3 µM (inactive)
same,GI50,CAKI-1,63.8 µM (inactive)
same,GI50,K562,22.1 µM (inactive)
same,GI50,NCI-H460,37.7 µM (inactive)
same,GI50,OVCAR-8,39.4 µM (inactive)
same,GI50,SN12C,35.9 µM (inactive)
same,GI50,LOX IMVI,36.2 µM (inactive)
same,GI50,SR,30.3 µM (inactive)
same,GI50,NCI-H23,35 µM (inactive)
same,GI50,NCI-H226,49.4 µM (inactive)
same,GI50,RPMI-8226,13.5 µM (inactive)
same,GI50,A549,44.2 µM (inactive)
same,GI50,HL-60,12.2 µM (inactive)
same,GI50,A498,87.7 µM (inactive)
same,GI50,MDA-MB-435,33.3 µM (inactive)
same,GI50,UACC-62,39.1 µM (inactive)
same,GI50,CCRF-CEM,7.76 µM (inactive)
same,GI50,TK-10,38.3 µM (inactive)
same,GI50,UO-31,47.9 µM (inactive)
same,GI50,KM12,28.2 µM (inactive)
same,GI50,MCF7,28.5 µM (inactive)
same,GI50,T47D,23.8 µM (inactive)
same,GI50,M14,43.2 µM (inactive)
same,GI50,NCI-H522,33.5 µM (inactive)
same,GI50,EKVX,43.9 µM (inactive)
same,GI50,SF-539,32.1 µM (inactive)
same,GI50,SNB-75,6.9 µM (inactive)
same,GI50,HT-29,18.5 µM (inactive)
same,GI50,SF-295,70.3 µM (inactive)
same,GI50,Malme-3M,19.3 µM (inactive)
same,GI50,IGROV-1,80.4 µM (inactive)
same,GI50,DU-145,86.3 µM (inactive)
same,GI50,SNB-19,67.9 µM (inactive)
same,GI50,MDA-MB-231,51.3 µM (inactive)
same,GI50,BT-549,28.2 µM (inactive)
same,GI50,UACC-257,25.2 µM (inactive)
